Assay results published in US4308273A, “1,6-Naphthyridine derivatives, and antidinic and cerebral circulation improver containing such derivatives” (Nippon Kayaku Kabushiki Kaisha, priority 1978, dated 1981).
Like-named read-outs stand apart in the source and are kept apart here.

Columns and labels:
[1] = Inhibition of spontaneous nystagmus produced by unilateral destruction of the labyrinth (anti-vertigo action); type: in vivo; details: cats; for inhibition at 12 mg/kg / inhibition at 6 mg/kg: Felis catus, iv, read-out: Effect of compounds on the nystagmus expressed as inhibitory percentage
Experimental: (1) It is well known that vertigo resulting from the disturbance of the peripheral labyrinth is accompanied by nystagmus. So, we acutely produced the spontaneous nystagmus by unilateral destruction of the labyrinth in cats and used it as an experimental model of vertigo. a pair of Ag--AgCl cup electrodes was placed laterally to both orbits and an indifferent electrode on the forehead. The nystagmus was recorded through an amplifier. The inhibitory effect of the compounds on the nystagmus was expressed by [formula] where A is the frequency of the nystagmus in ten seconds before administration of the compounds and B is the frequency of the nystagmus at the maximum inhibitory point after administration. The duration of the effect was also measured. Compounds dissolved in saline were injected into the femoral vein. Betahistine and diphenidol were used as standard drugs.
A: Doses of compounds injected intraveneously.
B: Effect of compounds on the nystagmus expressed as inhibitory
C: Duration of the effect of compounds

[2] = Acute toxicity (LD50) by intraperitoneal injection; details: mouse, in vivo, ip
Experimental: LD50 values of the compounds by intraperitoneal injection in mice were determined.

[3] = Cerebral vasodilating action: vertebral arterial flow, intra-arterial injection; type: in vivo; details: Canis lupus familiaris; dogs, 1 mg intraarterially; read-out: Percent increase in vertebral arterial flow when injected intraarterially
Experimental: A: Percent increase in vertebral arterial flow when injected
intraarterially (1 mg) to dogs.
(1) For the experimental evaluation of cerebral vasodilating action, the canine vertebral arterial preparation was used. The carotid arterial blood was led to the vertebral artery by a short extracorporeal loop. The vertebral arterial flow was measured by an electromagnetic flow transducer inserted in the circuit. The action of the compounds on the vertebral arterial flow was expressed by percent increase when 1 mg of each compound was injected intra-arterially.

[4] = Effects of intravenous injection on mean arterial pressure, heart rate and vertebral arterial flow in anesthetized dogs; details: for change in vivo at 1 mg/kg: Canis lupus familiaris, iv, read-out: Percent increase in vertebral arterial flow when injected intravenously; for Changes in heart rate when injected intravenously / Changes in systemic blood pressure when injected intravenously: anesthetized dogs, 1 mg/kg intravenously
Experimental: (§1) Pressure in the carotid artery was measured by a pressure transducer and mean arterial pressure was obtained by electrical integration. Heart rate was obtained by a cardiotachometer, triggered by a signal from the pressure pulse. The vertebral arterial flow was measured by fitting an electromagnetic flow transducer. The action on systemic mean arterial pressure, heart rate and vertebral arterial flow were represented by Δ mmHg, Δ beats/min and percent increase.

[5] = Effect on the hexobarbital-induced sleeping time; details: male mice, 50 mg/kg subcutaneously, 15 min prior to sodium hexobarbital i.p.
Experimental: Groups consisted of 10 male-mice were administered the compounds or saline subcutaneously 15 min. prior to an intraperitoneal injection of sodium hexobarbital. Sleeping time for each animal in a group was measured. The averaged value of sleeping time in each group was calculated. The action of the sleeping time was expressed by the percentage of the sleeping time in the compound-treated groups to that in the saline-treated group.
D: Sleeping time of the compound (50 mg/kg, subcutaneously)treated groups
expressd as percentage to that of the control group.

[6] = dog, in vivo, iv, 1 mg/kg
Experimental: as §1

[7] = 12 mg/kg injected intravenously
[8] = male mice, intraperitoneal injection (Table 3)
[9] = mice, intraperitoneal injection (Table 4)

Row | Compound | inhibition at 12 mg/kg [1, 7] [%] | Duration of the effect of compounds (nystagmus) [1, 7] [min] | LD50 [2, 8] [mg/kg] | change in vivo at 1 mg [3] [%] | change in vivo at 1 mg/kg [4] [%] | Changes in heart rate when injected intravenously [4] | Changes in systemic blood pressure when injected intravenously [4] | LD50 [2, 9] [mg/kg] | inhibition at 6 mg/kg ([1]; 6 mg/kg injected intravenously) [%] | Duration of the effect of compounds (nystagmus) ([1]; 6 mg/kg injected intravenously) [min] | Sleeping time of the compound treated groups expressed as percentage to that of the control group [5] [%] | Changes in heart rate when injected intravenously [6] | Changes in systemic blood pressure when injected intravenously [6]
1 | CCCCCN1CCc2ncccc2C1 [Compound 6, 5,6,7,8-tetrahydro-6-n-amyl-1,6-naphthyridine] | 86 | 10 | 165 |  |  |  |  |  |  |  |  |  | 
2 | CC(C)CCN1CCc2ncccc2C1 [Compound 7] | 85 | 6 | 219 |  |  |  |  |  |  |  |  |  | 
3 | CCCCCCN1CCc2ncccc2C1 [Compound 8] | 88 | 10 | 194 | 67 | 20.1 | +8 Δ beats/min | -18.5 Δ mmHg |  |  |  |  |  | 
4 | CCCCCCCN1CCc2ncccc2C1 [Compound 9] | 79 | 10 | 208 | 78 | 15.5 | +8 Δ beats/min | -20.0 Δ mmHg |  |  |  |  |  | 
5 | CCCCCCCCCCN1CCc2ncccc2C1 [Compound 11] |  |  |  | 99 | 25 | +8 Δ beats/min | -5.0 Δ mmHg | 156 |  |  |  |  | 
6 | C=CCN1CCc2ncccc2C1 [Compound 12, 5,6,7,8-tetrahydro-6-allyl-1,6-naphtyridine] | 98 | 50 | 208 |  |  |  |  |  | 90 | 40 | 132.5 |  | 
7 | C=CCCN1CCc2ncccc2C1 [Compound 14, 5,6,7,8-tetrahydro-6-(3-butenyl)-1,6-naphthyridine] | 77 | 28 | 239 |  |  |  |  |  |  |  |  |  | 
8 | CCCCCC=CCN1CCc2ncccc2C1 [Compound 19] | 65 | 25 | 304 |  |  |  |  |  |  |  |  |  | 
9 | CC(C)=CCC/C(C)=C/CN1CCc2ncccc2C1 [Compound 20] |  |  |  | 69 | 20 | +12 Δ beats/min | -11.7 Δ mmHg | 292 |  |  |  |  | 
10 | c1cnc2c(c1)CN(CC1CCC1)CC2 [Compound 23] | 83 | 8 | 214 |  |  |  |  |  |  |  |  |  | 
11 | c1ccc(OCCCN2CCc3ncccc3C2)cc1 [Compound 27] | 90 | 30 | 208 |  |  |  |  |  |  |  |  |  | 
12 | c1ccc(CN2CCc3ncccc3C2)cc1 [Compound 31] | 57 | 9 | 262 | 90 | 36 | +16 Δ beats/min | -12.0 Δ mmHg |  |  |  |  |  | 
13 | Clc1ccc(CN2CCc3ncccc3C2)cc1 [Compound 33] |  |  |  | 75 | 30 | +8 Δ beats/min | -23.5 Δ mmHg |  |  |  |  |  | 
14 | Cc1ccc(CN2CCc3ncccc3C2)cc1 [Compound 34] |  |  |  | 93 | 18 | +8 Δ beats/min | -10.0 Δ mmHg | 518 |  |  |  |  | 
15 | CCc1ccc(CN2CCc3ncccc3C2)cc1 [Compound 35] |  |  |  | 56 | 27.3 | +8 Δ beats/min | -21.7 Δ mmHg |  |  |  |  |  | 
16 | CC(C)c1cccc(CN2CCc3ncccc3C2)c1 [Compound 36] |  |  |  | 100 | 22 | +8 Δ beats/min | -20.0 Δ mmHg | 368 |  |  |  |  | 

Row | Compound | inhibition at 12 mg/kg [1, 7] [%] | Duration of the effect of compounds (nystagmus) [1, 7] [min] | LD50 [2, 8] [mg/kg] | change in vivo at 1 mg [3] [%] | change in vivo at 1 mg/kg [4] [%] | Changes in heart rate when injected intravenously [4] | Changes in systemic blood pressure when injected intravenously [4] | LD50 [2, 9] [mg/kg] | inhibition at 6 mg/kg ([1]; 6 mg/kg injected intravenously) [%] | Duration of the effect of compounds (nystagmus) ([1]; 6 mg/kg injected intravenously) [min] | Sleeping time of the compound treated groups expressed as percentage to that of the control group [5] [%] | Changes in heart rate when injected intravenously [6] | Changes in systemic blood pressure when injected intravenously [6]
17 | CC(C)c1ccc(CN2CCc3ncccc3C2)cc1 [Compound 37] |  |  |  | 110 | 33.3 |  | -13.3 Δ mmHg | 300 |  |  |  |  | 
18 | CC(C)(C)c1ccc(CN2CCc3ncccc3C2)cc1 [Compound 38] |  |  |  | 78 | 28.6 |  | -11.7 Δ mmHg |  |  |  |  |  | 
19 | Clc1ccc(CN2CCc3ncccc3C2)cc1Cl [Compound 44] |  |  |  | 107 | 30.8 | +32 Δ beats/min | -16.7 Δ mmHg | 270 |  |  |  |  | 
20 | COc1ccc(CN2CCc3ncccc3C2)cc1OC [Compound 46, 5,6,7,8-tetrahydro-6-(3,4-dimethoxybenzyl)-1,6-naphthyridine] |  |  |  | 99 | 50 | +32 Δ beats/min | -27.2 Δ mmHg | 262 |  |  |  |  | 
21 | CCCOc1cc(CN2CCc3ncccc3C2)ccc1OC [Compound 49] |  |  |  | 93 | 21.2 |  |  | 174 |  |  |  | +24 Δ beats/min | -11.6 Δ mmHg
22 | CCCOc1ccc(CN2CCc3ncccc3C2)cc1OCCC [Compound 50] |  |  |  | 79 | 30.6 |  |  | 200 |  |  |  | +16 Δ beats/min | -10.0 Δ mmHg
23 | CCCCOc1ccc(CN2CCc3ncccc3C2)cc1OCCCC [Compound 51] |  |  |  | 77 | 16.7 |  |  |  |  |  |  | 0 Δ beats/min | 0 Δ mmHg
24 | c1ccc(CCN2CCc3ncccc3C2)cc1 [Compound 55] | 92 | 5 | 219 |  |  |  |  |  |  |  |  |  | 
25 | c1ccc(CCCN2CCc3ncccc3C2)cc1 [Compound 57] | 97 | 10 | 159 |  |  |  |  |  |  |  |  |  | 
26 | C(=C\c1ccccc1)/CN1CCc2ncccc2C1 [Compound 58, 5,6,7,8-tetrahydro-6-cinnamyl-1,6-naphthyridine] | 53 | 35 | 263 | 81 | 22.2 | +40 Δ beats/min | -13.3 Δ mmHg |  |  |  |  |  | 
27 | Clc1ccccc1C=CCN1CCc2ncccc2C1 [Compound 61] |  |  |  | 84 | 29.2 | +24 Δ beats/min | -20.0 Δ mmHg |  |  |  |  |  | 
28 | O=[N+]([O-])c1ccccc1C=CCN1CCc2ncccc2C1 [Compound 67] |  |  |  | 75 | 40 | +16 Δ beats/min | -31.7 Δ mmHg |  |  |  |  |  | 
29 | Clc1ccc(C=CCN2CCc3ncccc3C2)c(Cl)c1 [Compound 70] |  |  |  | 158 | 60 | +16 Δ beats/min | -11.7 Δ mmHg | 220 |  |  |  |  | 
30 | Clc1ccc(C=CCN2CCc3ncccc3C2)cc1Cl [Compound 71] |  |  |  | 116 | 44.4 | +40 Δ beats/min | -38.3 Δ mmHg | 199 |  |  |  |  | 
31 | Cc1ccc(C)c(C=CCN2CCc3ncccc3C2)c1 [Compound 72] |  |  |  | 92 | 40 | +48 Δ beats/min | -38.3 Δ mmHg | 242 |  |  |  |  | 
32 | CNCCc1ccccn1 [betahistine, reference compound] | 80 | 8 | 864 | 90 | 14.3 |  |  |  | 55 | 5 |  | +52 Δ beats/min | -100.0 Δ mmHg
